Assay results reported in paper PMC6982022 (International Journal of Molecular Sciences, 2019).
“And” between values parts separate entries of the source, which are not always exact repeats. Equal values may be shown once. Read-outs that look alike come from different tables or passages of the source.

What was measured:
[1] = system: CGT; conditions: cited from earlier work
[2] = system: C57BL/6 mice; conditions: cited from earlier work
[3] = system: adult male CD rats; test: Parameters measured at necropsy at end of fertility trial (week 11); type: in vivo, rat
Excerpt: Rats were weighed on day 0 (first day of dosing) and weekly thereafter. Dosages were adjusted based on the most recent body weight. Males were cohabited with untreated females (one male per two females) weekly at weeks 1 through 9 [38, 39]. Females were necropsied seven days after separation from males to determine the numbers of implantation sites. Individual male rats were bled from the tail vein at weeks 0, 1, 4, and 7 and serum was harvested by centrifugation. At week 11, the male rats were weighed, anesthetized, and exsanguinated. Sera were analyzed for inhibin B by ELISA (enzyme-linked immunosorbent assay), and rat follicle stimulating hormone (rFSH) and testosterone by radioimmunoassay. Testes, epididymides, ventral prostates, and seminal vesicles were excised and weighed. The left testis was homogenized, and spermatid head counts obtained.
Sperm were obtained from the left cauda epididymis and evaluated for sperm motility, as follows. The cauda epididymis was punctured with an 18-gauge needle and sperm expressed into the well of a culture slide. The sperm were diluted with capacitation buffer containing 0.1% BSA to obtain about 20–40 sperm per field as viewed in the inverted microscope. The number of motile and non-motile sperm was determined, and the percent of motile sperm were calculated. A smear of the diluted sperm was also prepared and used to assess sperm morphology under phase contrast. The percent of normal/abnormal sperm were calculated.
Statistical analysis using the Student’s t-test was performed on body weights, paired testes weights, ventral prostrate weights, seminal vesicle weights, paired epididymal weights, spermatid head counts, percent motile and normal epididymal sperm. We used analysis of variance (ANOVA) for serum inhibin B, rFSH, and testosterone, since these measurements were repeated throughout the study period. The effect of NB-DNJ at 15 mg/kg/day dose in the rat model was studied following the same protocol as that for NB-DGJ.

[4] = system: C57BL6J mice; test: Epididymal sperm acrosome morphology (FITC-PSA staining) after 35 days oral dosing; type: in vivo, mouse; conditions: for Sperm morphology Abnormal, average (%) / Sperm morphology Normal, average (%): six mice/group
Procedure: Groups of six mice, each, were used for three different doses of NB-DNJ or NB-DGJ formulated in milliQ water at 50 mg/kg, 25 mg/kg and 15 mg/kg, respectively. Control groups were given an equivalent volume of water. Animals were given compound or control once daily for 35 consecutive days via oral gavage using animal feeding needles (Biomedical Needles, Popper, NY, USA). Body weight was noted every week for all treatment groups. Mice were euthanized at the end of a 35 days dosing regimen using CO2 asphyxia followed by cervical dislocation. Testes were harvested, weighed and stored in Bouin’s fixative for 48 h, then sliced into two halves, and stored in fresh Bouin’s for another 24 h. The tissue slices were then rinsed in 70% ethanol and processed and stained for histology using a standard protocol for Hematoxylin and eosin staining. Spermatids with elongated and abnormally shaped heads were counted per 20 fields and average number calculated for 6 mice/group.
For sperm retrieval, epididymis was removed from the animal and placed in Petri dish. One mL of capacitation buffer (Capacitation buffer consisted of 110 mM NaCl, 2.68 mM KCl, 0.36 mM NaH2PO4, 25 mM NaHCO3, 0.49 mM MgCl2, 2.40 mM CaCl2, 25 mM HEPES, 5.50 mM Glucose, 1 mM Pyruvic acid, pH 7.4; Tash and Bracho, 1998) at room temperature was added to the dish. Using forceps, the caput of the epididymis was held in place and the cauda sliced repeatedly with a razor blade. The spermatozoa were allowed to disperse for 15 min with gentle swirling intermittently. A 100 µL aliquot of the sperm suspension was dropped onto a standard glass microscope slide (Fisherbrand superfrost microscope slides 25 × 75 × 1.0 mm)) and smeared with side of pipette tip. The slides were air dried flat for 1 h at room temperature. The sperm smear was fixed in methanol for 2 min. The sperm smear was than stained using FITC-PSA (Fluorescein isothiocyanate Pisum Sativum Agglutinin; Vector Laboratories, Burlingame, CA) was diluted 1:7000 in PBS containing 1:10,000 DAPI dihydrochloride, FluoroPure™ grade, Invitrogen) (≥98% pure) to make the stock solution. To each slide, 100 µL of FITC-PSA was added and spread out with edge of pipette tip to cover the dried sperm smear. The slides were incubated at 37 °C for 10 min, and then washed with 5 changes of PBS for 5 min each. The slides were air-dried and mounted with 20 µL Vectashield mounting medium for fluorescence (Vector Laboratories, Burlingame, CA, USA) and observed. Slides were viewed on a Nikon IX-81 microscope under a 40× objective using FITC and DAPI filter to visualize acrosome morphology. The phase contrast images were also collected at the same magnification to compare morphological details.

[5] = 150 mg/kg/day on days 0-34, week 11, n = 6

## CCCCN1C[C@H](O)[C@@H](O)[C@@H](O)[C@H]1CO [NB-DGJ, N-butyldeoxygalactonojirimycin]
[1]; ref 20
  IC50: 41.4 µM
[1]; ref 36
  IC50: 10 µM
[2]; C57BL/6J male mice, 150 mg/kg
  Effect on fertility (in words): reversible infertility
[2]; C57BL/6J mice
  Time for fertility to resume: approximately three weeks
[2]; dose equivalent to 1200 mg/kg of NB-DNJ
  Testicular histology, spermiogenesis (in words): disrupts spermiogenesis
[3]; 150 mg/kg/day on days 0-34, n = 6
  Final Body Weight Week 11 (g ± SE): 572 ± 17 g
[3]; 150 mg/kg/day on days 0-34, week 11, Student's t-test
  Ventral prostate weight versus vehicle: No significant difference
[3]; [5]
  Mean Epididymal Sperm Motility (%): 60% and 60 ± 3 %
  Mean Epididymal Sperm with Normal Morphology (% ± SE): 72 ± 1 %
  Mean Paired Epididymal Weight (g ± SE): 1.64 ± 0.03 g
  Mean Paired Testis Weight (g ± SE): 3.80 ± 0.11 g
  Mean Seminal Vesicle Weight with Coagulating Gland: 1.40 ± 0.11 g
  Mean Spermatid Head Count/Testis: 123.59 ± 3.73 Cells × 10^6
[4]; 15 mg/kg oral daily
  Sperm morphology Abnormal, average (%): 51.59%
  Sperm morphology Normal, average (%): 48.4%
[4]; 25 mg/kg oral daily
  Sperm morphology Abnormal, average (%): 62.05%
  Sperm morphology Normal, average (%): 37.85%
[4]; 50 mg/kg oral daily
  Sperm morphology Abnormal, average (%): 88.21%
  Sperm morphology Normal, average (%): 11.78%
[4]; 15, 25 and 50 mg/kg oral daily
  Sperm acrosome morphology (in words): dose-dependent increase in the number of abnormal spermatozoa
